Patent US20210077492A1, “METHODS AND COMPOSITIONS OF TREATING PANCREATIC CANCER” (The Trustees of Indiana University, priority 2019, published 2021)

How the values were obtained:
[1] = tested on: orthotopic xenografts of PDAC with AsPC-1 cells; test: Orthotopic PDAC xenograft model, tumor growth kinetics; format: in vivo; conditions: THU 10 mg/kg three times weekly, 35 days
Method: Orthotopic mouse models with human PDAC cells were generated using NOD/SCID mice. In vivo BLI was conducted on a NiteOwl system and acquisition software. Data were analyzed using eLumenate analysis software. For the primary tumor, signal intensity was quantified as the sum of all detected photon counts within a region of interest selected by an automated maximum entropy method and normalized to the area of that region of interest. For the metastatic region, a region of interest was drawn manually in a “crescent” shape which encompassed all of the abdominal region except the primary tumor and maintained a boundary at least 2 mm away from the ROI for the primary. The signal in the metastatic region was again quantified by dividing the sum of all detected photon counts in the region by the area of the region.
Referring to FIG. 30, bioluminescent and primary PDAC cell lines ASPC1 and MiPaCa-2 were used to generate PDAC xenografts for therapeutic validation. At 22 days post injection of tumor cells, tumor growth and metastatic dissemination are detected in this orthotopic models in NOD/SCID mice. Referring to FIG. 31, orthotopic xenografts of PDAC with AsPC-1 cells were treated with vehicle control, Tetrahydrouridine (THU, 10 mg/kg), Decitabine (DAC, 0.2 mg/kg), or combination of THU (10 mg/kg) with DAC (0.1 mg/kg) three times weekly. […]

[2] = tested on: PDAC cell lines ASPC1, MiaPaCa-2, BXPC3; test: Cell proliferation of PDAC cell lines by automated IncuCyte incubator; format: cell-based, human
Method: A panel of pancreatic cancer cell lines (PCCs) was ordered from ATCC (https://www.atcc.org). Cells were cultured in RPMI media supplemented with 10% FBS and 1% penicillin streptomycin (100 units/ml of penicillin and […] of streptomycin) in a 37° C. incubator with 5% Carbon dioxide (CO2). All cell lines were confirmed to be mycoplasma-free using a Mycoalert detection kit (Lonza Allendale N.J., catalog #LT07-218) as per manufacturer's protocol. For DT1, DAC, and THU treatments, 1000 cells were plated in a 96 well plate overnight. Cells were treated three times at 24, 48, and 72 hours post-plating using concentrations of 0.2-2 μM of DT1 and DAC and 1-2 μM of THU independently or in combination. DMSO was used as a vehicle control. Cell proliferation was measured in a 37° C., Incucyte incubator (IncuCyte™ live-cell, Essen biosciences, Michigan USA) with 5% CO2 for automated live cell proliferation in real time, and images were taken every 6 hours for up to 160 hours. Cells were also counted on a Beckman coulter automated cell counter. Referring now to FIG. 27, primary PDAC cell line ASPC1 was incubated with 2 μM DT1 to inhibit UHRF1 and/or DNMT1 inhibitor DAC or CDA inhibitor THU (1 μM) or […], 0.2 μM DAC and THU (1 μM). Cell proliferation was quantified by automated IncuCyte incubator for 160 hours. […] Referring now to FIG. 28, primary PDAC cell line MiaPaCa-2 was incubated with 2 μM DT1 to inhibit UHRF1 and/or DNMT1 inhibitor DAC or CDA inhibitor THU (1 μM) or […], 0.2 μM DAC, and THU (1 μM). Cell proliferation was quantified by automated IncuCyte incubator for 160 hours. […] Referring now to FIG. 29, primary PDAC cell line BXPC3 was incubated with 2 μM DT1 to inhibit UHRF1 and/or DNMT1 inhibitor DAC or CDA inhibitor THU (1 μM) or […], 0.2 μM DAC, and THU (1 μM). Cell proliferation was quantified by automated IncuCyte incubator for 160 hours. […] Decitabine (DAC) is a clinically available drug that degrades DNMT1 to decrease DNA methylation while DT1 targets UHRF1.

[3] = tested on: pancreatic cancer cell line ASPC1; test: LINE1 global 5-methyl-cytosine DNA methylation assay in treated or transfected cells; format: cell-based, human; conditions: concentration not given
Method: DNA Methylation of normal pancreas and PDAC tumor samples was analyzed using data available through the MethHC database (http://methhc.mbc.nctu.edu.tw/php/index.php) using the PAAD dataset. Methylation analysis was performed at transcriptional start sites (TSS), promoters, and CpG island. For global DNA methylation changes, cells were transfected with shRNA against human UHRF1 (Dharmacon Horizon, catalog V3SH7590-225743149) for 96 hours or treated with THU (1 μM) DT1 (0.5-15 μM) or 5-aza-cytidine (1 μM). DNA was isolated using the Clonetech NucleoSpin DNA rapid lyse kit (catalog 740110.1) following manufacture's recommended conditions. 100 ng of isolated DNA was used to quantify DNA methylation using the 5mC-Long Interspersed Nucleotide Element 1 (LINE-1) kit from Active Motif (catalog number 55017) following the manufacture's recommendations. A Colorimetric ELISA readout was measured on a BioTek synhergy HI reader at 450 nm.
Referring now to FIG. 17, pancreatic cancer cell line ASPC1 was transfected with shRNA against UHRF1. DNA (100 ng) was isolated from shUFRF1 and scramble transfected cells at 96 hours post transfection and was used for quantification of global 5-methyl-cytosine methylation using LINE1 global DNA methylation kit (ACTIVE MOTIF).
Referring now to FIG. 23, primary PDAC cells were incubated with 2 μM of DT1 and 1 uM of THU for 96 hrs. […]

[4] = tested on: primary PDAC cell line ASPC1; test: Morphological analysis by giemsa staining for induction of differentiation; format: cell-based, human; conditions: DT1 at 0.5-2 μM
Method: (§1) Referring now to FIG. 23, primary PDAC cells were incubated with 2 μM of DT1 and 1 uM of THU for 96 hrs. RNA was isolated and gene expression pancreas differentiation factors were analyzed in ASPC1 and BXPC3 cells. Referring now to FIG. 24, primary PDAC cell line ASPC1 was treated with 1 μM of THU, 2 μM of DT1, and 1 μM of DAC, or the combination of 0.5 μM of DT1 plus 0.2 μM of DAC, or 1 μM of THU and 0.5 μM of DT1 plus 0.2 μM of DAC. Morphological analysis was performed using a giemsa staining method to determine induction of differentiation (enlargement of cytoplasm and reduction of nuclear compartments). Black bar=200× magnification. Referring now to FIG. 25, primary PDAC cell line ASPC1 was treated with 100 nM of ATRA and 1 μM of DAC, or combination of 100 nM of ATRA plus 200 nM of DAC. Morphological analysis was performed using a giemsa staining method to determine induction of differentiation (enlargement of cytoplasm and reduction of nuclear compartments). Black bar=200× magnification. Referring now to FIG. 26, pancreatic cancer cell line ASPC1 was treated with DMSO as control, 1 μM of THU, and varying DT1 concentrations. DNA (100 ng) was isolated at 96 hours post transfection and was used to quantify global 5-methyla-cytosine (5-mC) methylation using LINE1 global DNA methylation kit (ACTIVE MOTIF). […]

[5] = tested on: ASPC1 and BXPC3 cells; test: Gene expression of pancreas differentiation factors by qPCR; format: cell-based, human; conditions: DT1 at 0.5-2 μM
Method: Gene expression analysis by real time quantitative polymerase chain reaction (qRT-PCR) was performed using standard methods. Gene expression of target genes was performed using either SYBR green methods or Power Green ROX dye master mix (Applied Biosystems, Foster city CA, USA Lot number 1610538). Assays were performed with an Applied Biosytems ViiA7 (Life Technologies).
as §1, with “Morphological analysis was performed using a giemsa staining method to determine induction of differentiation (enlargement of cytoplasm and reduction of nuclear compartments). Black bar=200× magnification. Referring now to FIG. 26, pancreatic cancer cell line ASPC1 was treated with DMSO as control, 1 μM of THU, and varying DT1 concentrations.” left out

| Compound | tumor growth kinetics [1] | PDAC proliferation ([2]; alone or in combination, methods: 0.2-2 μM of DT1 and DAC, 1-2 μM of THU) | global DNA methylation [3] | differentiation-based morphological changes [4] | expression of pancreas differentiation factors [5] | concentration range at which DT1 activity was observed [2] | PDAC proliferation ([2]; DT1 at 0.5-2 μM) |
| --- | --- | --- | --- | --- | --- | --- | --- |
| O=C1NC(O)CCN1[C@@H]1O[C@H](CO)[C@@H](O)[C@H]1O (stereo partly shown) [THU, tetrahydrouridine, reference compound] | did not affect tumor growth kinetics | did not inhibit PDAC proliferation alone |  |  |  |  |  |
| C/C(=N\O)c1c[nH]c(=O)[nH]c1=O [DT1] |  |  | decreased global DNA methylation | induced differentiation-based morphological changes | upregulated pancreas differentiation factors | micromolar range | decreased PDAC proliferation |
